Test results: patent US7855076B2, “Use of discoidin domain receptor 1 (DDR1) and agents that affect the DDR1/collagen pathway” (The United States of America as represented by the …, priority 2002, dated 2010)

Experiments:
Type in all cases: cell-based, human
[1] = tested on: monocyte-derived dendritic cells; test: Allogeneic MLR with monocyte-derived DCs
Description: FIG. 9 is a graph showing the effect of DDR1 antibody on the antigen presenting capacity of DCs.
The most important function of DCs is to present antigens to naïve T cells. […] Human T cells were purified from PBMCs of healthy donors by magnetic separation using CD3^+microbeads (Miltenyi Biotech Inc., Auburn, Calif.). T cells (1×10^5) were placed in 96-well plates with increasing numbers of DC (5×10^2−1×10^4 cells) in 200 μl culture medium. On day four, 1 μCi/well of [^3H]thymidine was added, and incorporation of radioactivity was measured after 15 hours of incubation. All tests were performed in triplicate.

THP-1 cells = test: Cytokine and chemokine release from PMA-treated THP-1 cells by ELISA
Description: The production of DDR1a- or 1b-overexpressing THP-1 cells was previously described (Kamohara et al., FASEB J. 15:2724, 2001). Briefly, the human monocytic leukemic cell line, THP-1, was transduced with control retrovirus containing the vector only (mock-transduced) or retrovirus expressing DDR1a or DDR1b. THP-1 cells transduced by each virus were selected with G418, and cloned by limiting dilution. The cloned THP-1 cells were maintained in RPMI 1640 medium supplemented with 100 μg/ml gentamycin and 10% FCS (complete medium). Cells were plated at 1×10^6/ml and treated with PMA (10 nM) for variable times on uncoated or collagen-coated tissue culture plates for quantification of cytokine or chemokine release.
In addition, the concentration of MCP-1 in the culture supernatant of each cell line was measured by ELISA. The concentration of MCP-1 was measured in the Lymphokine Testing Laboratory, Clinical Services Program, SAIC-Frederick (Frederick, Md.) by using an enzyme-linked immunosorbent assay (ELISA) kit (R&D Systems, Minneapolis, Minn.) specific for the chemokine.
In addition, the concentrations of IL-1β, IL-8, and MIP-1α in the culture supernatants of each cell line were quantified by ELISA (FIG. 6). The concentration of IL-1β, IL-8, and MIP-1α were measured in the Lymphokine Testing Laboratory, Clinical Services Program, SAIC-Frederick (Frederick, Md.) by using enzyme-linked immunosorbent assay (ELISA) kits (R&D Systems, Minneapolis, Minn.) specific for each human cytokine and chemokine. […]

NF-κB [2] = test: Nuclear translocation of NF-κB by EMSA; conditions: DDR1b-overexpressing cells on collagen-coated plates
Description: Nuclear translocation of NF-κB was examined by EMSA. Nuclear extracts were prepared by a method previously reported (Ueda et al., J. Biol. Chem. 272:31092, 1997), and aliquots were frozen at −80° C. For EMSA, end-labeled ^32P-oligonucleotide probes corresponding to the NF-KB binding site of the Ig κ-chain (5′-[…]-3′) (SEQ ID NO: 15) or MCP-1 (A2 site; 5′-[…]-3′) (SEQ ID NO: 16) gene were used. Each probe was incubated with 5 μg of nuclear extracts in 20 μl of binding cocktail (50 mM Tris-HCl, pH 7.4, 25 MM MgCl2, 0.5 mM DTT, 50% glycerol) at 4° C. for 15 minutes. The DNA-protein complexes were resolved on a 5% polyacrylanide gel. The dried gels were exposed to X-ray films.

NF-κB [3] = test: NF-κB luciferase reporter assay in THP-1 cells; conditions: DDR1b-overexpressing cells
Description: For the results shown in FIG. 7A, mock-transduced or DDR1b-overexpressing THP-1 cells were transfected with 10 μg of the NF-κB-Luc plasmid and 5 μg of pSV-β-galactosidese plasmid DNA (Promega, Madison, Wis.) per 100-mm tissue culture plate using Effectene Transfection Reagent (Qiagen, Valencia, Calif.), according to the manufacture's protocol. After a 12-hour incubation, cells were rinsed with phosphate buffered saline (PBS) and then incubated with 10 nM PMA on collagen-coated plates in the presence of absence of SB203580, PD98059, CAPE or dimethlysulfoxide (DMSO) for another 12 hours. Cells were collected and lysed using the Reporter Lysis Buffer (Promega, Madison, Wis.), and luciferase activity and β-galactosidase activities were measured according to the protocol provided by the manufacturer. The resulting luciferase activity was corrected based on the β-galactosidase activity in the same cell extract. For the results shown in FIG. 7B, DDR1b-overexpressing THP-1 cells were transfected with 10 μg of the pGLM-ENH, or pGLM-MA1MA2 (Ueda et al., J. Bio. Chem. 272: 31092-9, 1997) and 5 μg of pSV-β-galactosidese plasmid DNA (Promega, Madison, Wis.) per 100-mm tissue culture plate using Effectene Transfection Reagent (Qiagen, Valencia, Calif.) according to the manufacture's protocol. […] Cells were collected and lysed using the Reporter Lysis Buffer (Promega, Madison, Wis.), and luciferase activity and β-galactosidase activities were measured according to the protocol provided by the manufacturer. […]
Mock-transduced or DDR1b-overexpressing THP-1 cells were transfected with 10 μg of the NF-κB-Luc plasmid, pGL-ENH, or pGL-MA1MA2 and 5 μg of pSV-β-galactosidase plasmid DNA (Promega, Madison, Wis.) per 100-mm tissue culture plate using Effectene Transfection Reagent (Qiagen, Valencia, Calif.) according to the manufacture's protocol. […] Luciferase activity and β-galactosidase activities were measured according to the protocol provided by the manufacturer. […]

[4] = DDR1b-overexpressing THP-1 cells, PMA, collagen-coated plates, 48 hours

## C[S+]([O-])c1ccc(-c2nc(-c3ccncc3)c(-c3ccc(F)cc3)[nH]2)cc1 (centres unmarked) [SB203580]
[1]
  capacity to activate allogeneic MLR of TNF-α-induced DCs and its up-regulation by DDR1 activation: almost completely abrogated
THP-1 cells; [4]
  collagen-induced up-regulation of IL-1β release: inhibited
  collagen-induced up-regulation of IL-8 release: inhibited
  collagen-induced up-regulation of MCP-1 release: inhibited
  collagen-induced up-regulation of MIP-1α release: inhibited
NF-κB [2]
  increased NF-κB/DNA binding: not affected
NF-κB [3]; 12 hours
  increase in luciferase activity induced by PMA plus collagen: dose-dependently inhibited

## TNF-α
[1]; cell number-dependent
  allogeneic MLR by induced mDCs: markedly activated

## collagen
THP-1 cells; PMA-treated DDR1b-overexpressing cells
  increase of MCP-1 released on collagen-coated plates: approximately 7 fold
NF-κB [2]
  amount of NF-κB/DNA complex: significantly increased
NF-κB [3]; PMA plus collagen, NF-κB-Luc plasmid
  luciferase activity: markedly increased
